How the values were obtained:
[1] = molecular target: T1, Alpha-2A adrenergic receptor (Homo sapiens, UniProt P08913); assay type: functional, cell-based
T1 sequence (P08913 whole entry): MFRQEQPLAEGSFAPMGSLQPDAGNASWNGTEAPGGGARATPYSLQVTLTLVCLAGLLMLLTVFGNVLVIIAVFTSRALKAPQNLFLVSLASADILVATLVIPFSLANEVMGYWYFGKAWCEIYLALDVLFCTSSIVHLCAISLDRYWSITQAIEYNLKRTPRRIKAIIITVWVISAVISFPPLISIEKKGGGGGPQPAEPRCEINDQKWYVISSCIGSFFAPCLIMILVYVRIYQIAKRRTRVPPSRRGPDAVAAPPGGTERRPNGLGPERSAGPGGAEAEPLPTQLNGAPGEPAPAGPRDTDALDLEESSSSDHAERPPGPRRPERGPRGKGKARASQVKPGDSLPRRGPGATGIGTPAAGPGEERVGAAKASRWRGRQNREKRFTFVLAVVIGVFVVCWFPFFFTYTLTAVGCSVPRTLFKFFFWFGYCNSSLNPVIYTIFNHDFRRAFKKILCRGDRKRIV

[2] = molecular target: T1, Alpha-2A adrenergic receptor; assay type: functional, cell-based; remark: listed apart in the source
Histamine H1 receptor = Histamine H1 receptor (Homo sapiens, UniProt P35367)
[3] = molecular target: T2, 5-hydroxytryptamine receptor 2C (Homo sapiens, UniProt P28335)
T2 sequence (P28335 whole entry): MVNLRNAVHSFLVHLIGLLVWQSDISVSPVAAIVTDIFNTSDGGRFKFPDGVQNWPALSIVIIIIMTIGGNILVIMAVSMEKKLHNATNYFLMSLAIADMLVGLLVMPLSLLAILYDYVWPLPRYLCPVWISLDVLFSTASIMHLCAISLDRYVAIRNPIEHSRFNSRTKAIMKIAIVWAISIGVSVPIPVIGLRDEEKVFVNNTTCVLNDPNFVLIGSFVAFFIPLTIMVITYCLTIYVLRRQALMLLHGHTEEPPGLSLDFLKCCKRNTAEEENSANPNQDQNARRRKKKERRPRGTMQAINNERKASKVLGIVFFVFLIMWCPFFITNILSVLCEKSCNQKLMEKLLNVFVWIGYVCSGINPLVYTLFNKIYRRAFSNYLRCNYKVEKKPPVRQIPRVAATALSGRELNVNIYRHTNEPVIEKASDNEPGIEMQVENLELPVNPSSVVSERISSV

D(3) dopamine receptor = D(3) dopamine receptor (Homo sapiens, UniProt P35462)
[4] = molecular target: T3, Muscarinic acetylcholine receptor M1 (Homo sapiens, UniProt P11229); assay type: functional, cell-based
T3 sequence (P11229 whole entry): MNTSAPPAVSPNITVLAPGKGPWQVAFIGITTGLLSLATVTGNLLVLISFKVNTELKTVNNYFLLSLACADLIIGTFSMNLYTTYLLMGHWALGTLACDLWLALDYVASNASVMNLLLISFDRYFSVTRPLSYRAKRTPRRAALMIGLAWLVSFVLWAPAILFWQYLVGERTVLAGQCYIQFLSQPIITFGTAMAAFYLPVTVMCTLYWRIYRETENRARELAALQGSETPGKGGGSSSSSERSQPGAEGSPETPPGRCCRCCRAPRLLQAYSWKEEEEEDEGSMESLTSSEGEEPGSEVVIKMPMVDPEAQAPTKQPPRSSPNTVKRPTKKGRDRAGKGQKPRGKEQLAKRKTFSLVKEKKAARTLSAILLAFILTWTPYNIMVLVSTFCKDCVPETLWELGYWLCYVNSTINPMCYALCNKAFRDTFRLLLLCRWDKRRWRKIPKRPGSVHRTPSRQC

Adenosine receptor A3 = molecular target: T4, Adenosine receptor A3 (Homo sapiens, UniProt P0DMS8)
T4 sequence (P0DMS8 whole entry): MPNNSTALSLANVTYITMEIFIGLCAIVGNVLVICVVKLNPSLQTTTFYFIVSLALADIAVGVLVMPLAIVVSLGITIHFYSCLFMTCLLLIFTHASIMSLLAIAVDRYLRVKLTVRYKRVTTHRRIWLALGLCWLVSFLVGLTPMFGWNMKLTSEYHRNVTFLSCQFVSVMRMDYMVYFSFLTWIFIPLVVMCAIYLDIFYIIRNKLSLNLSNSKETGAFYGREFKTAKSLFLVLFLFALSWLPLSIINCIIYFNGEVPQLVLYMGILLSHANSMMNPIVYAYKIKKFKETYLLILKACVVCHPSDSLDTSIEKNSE

Melanocortin receptor 3 = Melanocortin receptor 3 (Homo sapiens, UniProt P41968)
Note: assay procedure not described here.

Sequence of Melanocortin receptor 3 (P41968 whole entry): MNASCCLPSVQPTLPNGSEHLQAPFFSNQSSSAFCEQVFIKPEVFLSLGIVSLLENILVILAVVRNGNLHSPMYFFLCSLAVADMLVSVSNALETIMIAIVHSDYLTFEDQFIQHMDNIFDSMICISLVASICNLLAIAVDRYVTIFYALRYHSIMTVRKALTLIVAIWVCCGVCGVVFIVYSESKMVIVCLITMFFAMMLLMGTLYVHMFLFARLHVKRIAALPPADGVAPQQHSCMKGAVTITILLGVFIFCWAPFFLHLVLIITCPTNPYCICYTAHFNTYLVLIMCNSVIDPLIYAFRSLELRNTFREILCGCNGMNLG
Sequence of Histamine H1 receptor (P35367 whole entry): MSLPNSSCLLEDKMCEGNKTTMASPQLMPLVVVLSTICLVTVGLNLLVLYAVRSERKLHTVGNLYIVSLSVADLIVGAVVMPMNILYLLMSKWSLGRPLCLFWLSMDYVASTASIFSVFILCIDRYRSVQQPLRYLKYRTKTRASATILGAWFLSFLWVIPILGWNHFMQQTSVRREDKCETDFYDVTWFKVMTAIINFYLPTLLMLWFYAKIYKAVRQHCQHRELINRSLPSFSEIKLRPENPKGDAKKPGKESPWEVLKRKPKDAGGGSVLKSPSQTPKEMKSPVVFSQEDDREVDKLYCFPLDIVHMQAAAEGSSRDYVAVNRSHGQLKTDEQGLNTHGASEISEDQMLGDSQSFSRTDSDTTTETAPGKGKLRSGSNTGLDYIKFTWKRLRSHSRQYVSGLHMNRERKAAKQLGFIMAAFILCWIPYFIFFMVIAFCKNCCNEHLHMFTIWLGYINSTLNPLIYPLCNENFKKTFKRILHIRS
Sequence of D(3) dopamine receptor (P35462 whole entry): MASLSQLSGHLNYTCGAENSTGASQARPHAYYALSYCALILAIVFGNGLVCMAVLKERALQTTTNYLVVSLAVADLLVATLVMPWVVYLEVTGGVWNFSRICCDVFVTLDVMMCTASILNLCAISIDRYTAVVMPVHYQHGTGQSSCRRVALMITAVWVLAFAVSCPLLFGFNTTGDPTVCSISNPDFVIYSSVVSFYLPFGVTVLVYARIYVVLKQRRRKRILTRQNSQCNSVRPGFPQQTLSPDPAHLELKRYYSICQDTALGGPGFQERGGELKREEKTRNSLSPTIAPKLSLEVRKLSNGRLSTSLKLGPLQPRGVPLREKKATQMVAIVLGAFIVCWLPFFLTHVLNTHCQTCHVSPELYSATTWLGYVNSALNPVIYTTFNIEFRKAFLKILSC

SMILES | AC50 [1] | AC50 [2] | AC50 (Histamine H1 receptor) | AC50 [3] | AC50 (D(3) dopamine receptor) | AC50 [4] | AC50 (Adenosine receptor A3) | AC50 (Melanocortin receptor 3)
CO/N=C(\C(=O)N[C@@H]1C(=O)N2C(C(=O)OCOC(=O)C(C)(C)C)=C(C)CS[C@H]12)c1csc(N)n1 | > 30 µM | > 30 µM | > 30 µM | > 30 µM | > 30 µM |  |  | 
Nc1ccc(C(=O)O)cc1 [AMINOBENZOIC ACID] |  |  |  |  |  | > 30 µM |  | 
NS(=O)(=O)c1cc(-c2nnn[nH]2)c(NCc2cccs2)cc1Cl [AZOSEMIDE] | > 30 µM | > 30 µM | > 30 µM | > 30 µM | > 30 µM |  | > 30 µM | > 30 µM
O=C(Cn1ccnc1[N+](=O)[O-])NCc1ccccc1 [BENZNIDAZOLE] | > 30 µM | > 30 µM | > 30 µM | > 30 µM | > 30 µM |  | > 30 µM | > 30 µM
C[N+](C)(C)CC(=O)O [BETAINE] | > 30 µM | > 30 µM | > 30 µM | > 30 µM | > 30 µM |  | > 30 µM | > 30 µM
CCCC(=O)N1CCCN(c2nc(N)c3cc(OC)c(OC)cc3n2)CC1 [BUNAZOSIN] | > 30 µM | 11 µM | > 30 µM | > 30 µM | 21 µM |  | > 30 µM | > 30 µM
CCCCN(CCCC)CCCOC(=O)c1ccc(N)cc1 [BUTACAINE] |  |  |  |  |  | > 30 µM |  | 
C[N+](C)(C)CCOC(N)=O [CARBAMOYLCHOLINE] | > 30 µM | > 30 µM |  | > 30 µM | > 30 µM |  | > 10 µM | > 10 µM
N[C@@H](CSCC(=O)O)C(=O)O [CARBOCYSTEINE] | > 30 µM | > 30 µM | > 30 µM | > 30 µM | > 30 µM |  | > 30 µM | > 30 µM
NCc1ccccc1CC(=O)N[C@@H]1C(=O)N2C(C(=O)O)=C(CSc3nnnn3CC(=O)O)CS[C@H]12 [CEFORANIDE] |  |  |  |  |  | > 30 µM |  | 
COCC1=C(C(=O)OC(C)OC(=O)OC(C)C)N2C(=O)[C@@H](NC(=O)/C(=N\OC)c3csc(N)n3)[C@H]2SC1 (some centres not stated) [CEFPODOXIME PROXETIL] | > 30 µM | > 30 µM | > 30 µM | > 30 µM | > 30 µM |  |  | 
CC(C)(N)Cc1ccc(Cl)cc1 [CHLORPHENTERMINE] | > 10 µM | > 10 µM | 14 µM | > 30 µM | > 30 µM |  | > 30 µM | > 30 µM
NS(=O)(=O)c1cc2c(cc1Cl)NC(CC1CCCC1)NS2(=O)=O (configuration not stated) [CYCLOPENTHIAZIDE] | > 30 µM | > 30 µM | > 30 µM | > 30 µM | > 30 µM |  |  | 
CN(C)[C@@H]1C(O)=C(C(N)=O)C(=O)[C@@]2(O)C(O)=C3C(=O)c4c(O)ccc(Cl)c4[C@@H](O)[C@H]3C[C@@H]12 [DEMECLOCYCLINE] | > 10 µM | > 10 µM | > 10 µM | > 30 µM | > 30 µM |  | > 10 µM | > 10 µM
NS(=O)(=O)c1cc(Cl)c(Cl)c(S(N)(=O)=O)c1 [DICHLORPHENAMIDE] | > 10 µM | > 10 µM | > 10 µM | > 30 µM | > 30 µM |  | > 10 µM | > 10 µM
C=C1C[C@@H]2[C@H](CC[C@]3(C)C(=O)CC[C@@H]23)[C@@]2(C)C=CC(=O)C=C12 [EXEMESTANE] | > 10 µM | > 10 µM | > 10 µM | > 30 µM | > 30 µM |  | > 30 µM | > 30 µM
O=C1NCC2(CCN(CCc3ccccc3)CC2)O1 [FENSPIRIDE] |  |  |  |  |  | > 30 µM |  | 

SMILES | AC50 [1] | AC50 [2] | AC50 (Histamine H1 receptor) | AC50 [3] | AC50 (D(3) dopamine receptor) | AC50 [4] | AC50 (Adenosine receptor A3) | AC50 (Melanocortin receptor 3)
CC(C(O)c1ccc(O)cc1)N1CCC(Cc2ccccc2)CC1 (configuration not stated) [IFENPRODIL] | > 30 µM | 3.8 µM | 1 µM | > 30 µM | 1.2 µM |  | > 30 µM | > 30 µM
CC(=O)N(CC(O)CO)c1c(I)c(C(=O)NCC(O)CO)c(I)c(C(=O)NCC(O)CO)c1I (configuration not stated) [IOHEXOL] | > 10 µM | > 10 µM | > 10 µM | > 30 µM | > 30 µM |  | > 30 µM | > 30 µM
CCC(Cc1c(I)cc(I)c(N)c1I)C(=O)O (configuration not stated) [IOPANOIC ACID] |  |  |  |  |  | > 30 µM |  | 
CN(CCCN1c2ccccc2CCc2ccccc21)CC(=O)c1ccc(Cl)cc1 [LOFEPRAMINE] | > 30 µM | > 30 µM | 0.65 µM | 2.7 µM | 3 µM |  | 18 µM | > 30 µM
CC(=O)O[C@]1(C(C)=O)CC[C@H]2[C@@H]3C[C@H](C)C4=CC(=O)CC[C@]4(C)[C@H]3CC[C@@]21C [MEDROXYPROGESTERONE ACETATE] |  |  |  |  |  |  | > 30 µM | > 30 µM
CCC1(c2cccc(O)c2)CCCCN(C)C1 (configuration not stated) [MEPTAZINOL] |  |  |  |  |  | > 30 µM |  | 
CN(C/C=C/c1ccccc1)Cc1cccc2ccccc12 [NAFTIFINE] | > 10 µM | > 10 µM | > 10 µM | > 30 µM | > 30 µM |  | > 30 µM | > 30 µM
CC(C)NCC1CCc2cc(CO)c([N+](=O)[O-])cc2N1 (configuration not stated) [OXAMNIQUINE] | > 10 µM | > 10 µM | > 10 µM | > 30 µM | 7.4 µM |  | > 10 µM | > 10 µM
Nc1ccc(/N=N/c2ccccc2)c(N)n1 [PHENAZOPYRIDINE] | > 30 µM | > 30 µM | 4.5 µM | 1.91 µM | 3.1 µM |  |  | 
CN(C)CCCN1c2ccccc2Sc2ccccc21 [PROMAZINE] | > 10 µM | > 10 µM |  | 0.15 µM | 0.075 µM |  | > 30 µM | > 30 µM
O=C(O)CCn1c2c(c3ccccc31)C[C@H](NS(=O)(=O)c1ccc(F)cc1)CC2 [RAMATROBAN] | > 10 µM | > 10 µM | > 10 µM | > 30 µM | > 30 µM | > 30 µM | > 30 µM | > 30 µM
O=P(O)(O)C(O)(Cc1cccnc1)P(=O)(O)O [RISEDRONIC ACID] | > 30 µM | > 30 µM |  | > 30 µM | > 30 µM |  | > 30 µM | > 30 µM
O=C1CCC(N2C(=O)c3ccccc3C2=O)C(=O)N1 (configuration not stated) [THALIDOMIDE] | > 10 µM | > 10 µM |  | > 30 µM | > 10 µM |  | > 30 µM | > 30 µM
CCC1C(C)=NN=C(c2ccc(OC)c(OC)c2)c2cc(OC)c(OC)cc21 (configuration not stated) [TOFISOPAM] |  |  |  |  |  | > 30 µM |  | 
COc1cc(NCc2ccc3nc(N)nc(N)c3c2C)cc(OC)c1OC [TRIMETREXATE] |  |  |  |  |  | > 30 µM |  | 
CC(=O)N[C@H]1[C@H]([C@H](O)[C@H](O)CO)OC(C(=O)O)=C[C@@H]1N=C(N)N [ZANAMIVIR] | > 10 µM | > 10 µM | > 30 µM | > 30 µM | > 30 µM |  | > 30 µM | > 30 µM

Source: ChEMBL document CHEMBL5291721, “A preclinical secondary pharmacology resource illuminates target-adverse drug reaction associations of marketed drugs” (Nat Commun, 2023)
